Calls of active or inactive are those of the source.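 The calls were made as follows: active = fitted half-maximal concentration for change in GFP expression of 33 µM or less; inactive = the rest.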

The nature of the assay: potency of AGP1-GFP expression modulators in yeast, dose response, cell-based, flow cytometry, S. cerevisiae, MLPCN hits (AID 2743). As to conditions: S. cerevisiae AGP1-GFP strain, flow cytometry GFP, 3 h; at 33 µM (top of the series). In general terms: In flow cytometry, cells or beads pass a laser one at a time.

In the case of `COc1cccc(/C=C2\SC(=S)N(CCCC(=O)Nc3ccc(C(=O)O)cc3)C2=O)c1`, the GFP fluorescence (kMESF) was 34.8 kMESF (inactive).

Consider `Cc1ccc(C(=O)O/N=C(\N)Cc2cccs2)c(Cl)c1`, for which the GFP fluorescence (kMESF) was 22.9 kMESF (inactive).

For `CCC(=O)Nc1ccc(NC(=O)c2cc3ccccc3o2)cc1`, the GFP fluorescence (kMESF) was 43.4 kMESF (inactive).

In the case of `O=C(Nc1nnc(-c2ccc3c(c2)CCCC3)o1)c1ccc(Cl)cc1Cl`, the GFP fluorescence (kMESF) was 20.9 kMESF (inactive).

Take `O=C1C=CC(=O)N1c1ccc(N2CCCCC2)cc1`: the GFP fluorescence (kMESF) is 46.9 kMESF (inactive).

As for `COc1ccc([C@@]2(C(C)C)ON(c3ccccc3C(F)(F)F)C2=O)cc1`, the GFP fluorescence (kMESF) is 39.4 kMESF (inactive).

With `O=C1CCN(S(=O)(=O)c2ccccc2)CCN1CCOCc1ccc(F)cc1`, the GFP fluorescence (kMESF) is 33.5 kMESF (inactive).

Take `O=C(Oc1c(Cl)cc(Cl)c2cccnc12)c1ccco1`: the GFP fluorescence (kMESF) was 40.7 kMESF (inactive).

For the compound `O=C(/C=C/c1ccccc1)c1cc(Br)ccc(=O)c1O`, the GFP fluorescence (kMESF) was -1.01 kMESF (inactive).

For `COc1ccc(N=Cc2nc(-c3ccccc3)oc2OC(C)=O)cc1`, the GFP fluorescence (kMESF) was 35 kMESF (inactive).

Turning to `COc1cccc(N=Nc2ccc(O)c3ncccc23)c1`, the GFP fluorescence (kMESF) is 45.7 kMESF (inactive).

Consider `O=C(Nc1ccccc1)c1nnsc1S(=O)(=O)c1ccc(Cl)cc1`, for which the GFP fluorescence (kMESF) was 38.4 kMESF (inactive).

As for `O=C(OCn1ncc(Br)c(Br)c1=O)c1ccccc1Cl`, the GFP fluorescence (kMESF) was 46 kMESF (inactive).

In the case of `O=C1NC(=O)N(Cc2ccc(F)cc2)C(=O)/C1=C/c1cccs1`, the GFP fluorescence (kMESF) is 28.1 kMESF (inactive).

As for `CCCCCCCCn1sccc1=O`, the GFP fluorescence (kMESF) was 31.5 kMESF (inactive).

On to `Oc1c(C(Nc2nc3ccccc3s2)c2ccco2)ccc2cccnc12` (configuration not stated), for which the GFP fluorescence (kMESF) is 39.7 kMESF (inactive).

On to `COc1ccc(C2(C)ON(c3ccccc3C(F)(F)F)C2=O)cc1` (configuration not stated), for which the GFP fluorescence (kMESF) is 36.5 kMESF (inactive).

With `COc1ccc(C(=O)NNC(=S)NC(=O)/C=C/c2cccs2)cc1`, the GFP fluorescence (kMESF) was 52.8 kMESF (inactive).

`O=C(O)C1Sc2[nH]c(=O)sc2C2c3cc(Br)ccc3OC(=O)C12` (configuration not stated): the GFP fluorescence (kMESF) is 38.7 kMESF (inactive).

On to `O/C=c1\ccc2cccc3nc(C(F)(F)F)nc1c23`, for which the GFP fluorescence (kMESF) is 40.7 kMESF (inactive).

With `N/C(=N\OC(=O)c1ccc(Cl)cc1Cl)c1ccccc1`, the GFP fluorescence (kMESF) is 27.3 kMESF (inactive).

Regarding `O=C(O)c1ccc2c(c1)C(=O)/C(=C/c1ccccc1)C2=O`, the GFP fluorescence (kMESF) was 40.5 kMESF (inactive).

Take `Cc1ccc(N=c2ssnc2Cl)cc1`: the GFP fluorescence (kMESF) is 43.2 kMESF (inactive).

For `Cc1ccc(NC(=O)CCc2ccccc2)cc1S(=O)(=O)N1CCOCC1`, the GFP fluorescence (kMESF) was 40.4 kMESF (inactive).

On to `On1ccccc1=S`, for which the GFP fluorescence (kMESF) was 35.2 kMESF (inactive).

Consider `O=C(Oc1ccnc2cc(Cl)ccc12)N1CCOCC1`, for which the GFP fluorescence (kMESF) is 35.7 kMESF (inactive).

Take `Cc1c(C)c2ccc(Oc3ccc([N+](=O)[O-])cc3C(F)(F)F)c(C)c2oc1=O`: the GFP fluorescence (kMESF) is 33.9 kMESF (inactive).

On to `COc1cccc(/C=N/Nc2ccc([N+](=O)[O-])cn2)c1O`, for which the GFP fluorescence (kMESF) is 29.3 kMESF (inactive).

`Cc1ccc(N2C(=O)C(Cl)=C(Nc3c(C)n(C)n(-c4ccccc4)c3=O)C2=O)cc1`: the GFP fluorescence (kMESF) was 35 kMESF (inactive).

Turning to `COc1ccc(C(=O)/C=C2/C(=O)Nc3ccccc32)cc1`, the GFP fluorescence (kMESF) is 44.8 kMESF (inactive).

Regarding `C[C@@]12C(=O)OC(=O)[C@]1(C)C1CCC2O1`, the GFP fluorescence (kMESF) was 32.6 kMESF (inactive).

Regarding `O=C1C(Cl)=C(Nc2ccccc2O)C(=O)N1c1ccccc1`, the GFP fluorescence (kMESF) was 38.4 kMESF (inactive).

Take `Cc1ccnc(N2C(=O)c3cccc4c([N+](=O)[O-])ccc(c34)C2=O)c1`: the GFP fluorescence (kMESF) was 54.7 kMESF (inactive).

With `CCCc1nnc(NC(=O)c2c(O)c3cccc4c3n(c2=O)CCC4)s1`, the GFP fluorescence (kMESF) is 2.53 kMESF (inactive).

Take `O=C(Nc1nc(-c2ccccn2)cs1)c1cc2ccccc2o1`: the GFP fluorescence (kMESF) was 38.7 kMESF (inactive).

On to `Cc1[nH]c2ccccc2c1C(=O)COC(=O)c1ccc([N+](=O)[O-])s1`, for which the GFP fluorescence (kMESF) was 16.9 kMESF (inactive).

As to `O=S(=O)(/N=C(/Sc1ccccc1)c1ccccc1)c1ccccc1`, the GFP fluorescence (kMESF) was 41 kMESF (inactive).

Take `Cc1cccc(N2C(=O)C(Cl)=C(Nc3c(C)n(C)n(-c4ccccc4)c3=O)C2=O)c1C`: the GFP fluorescence (kMESF) is 43.3 kMESF (inactive).

With `COc1ccc(N2C(=O)C(Cl)=C(Oc3cccc(OC)c3)C2=O)cc1`, the GFP fluorescence (kMESF) is 38.8 kMESF (inactive).

Consider `CCOC(=O)C(C(=O)OCC)C(C(=O)OCC)N1CCOCC1` (configuration not stated), for which the GFP fluorescence (kMESF) was 41 kMESF (inactive).

Regarding `Cc1cc2ccccn2c1C(=O)c1ccc([N+](=O)[O-])o1`, the GFP fluorescence (kMESF) is 26 kMESF (inactive).

As for `CC(=O)SC(C[N+](=O)[O-])c1cn(C(C)=O)c2ccccc12` (configuration not stated), the GFP fluorescence (kMESF) was 36.3 kMESF (inactive).

Take `CC(C)(C)C(=O)NC(=S)NNC(=O)c1sc2ccccc2c1Cl`: the GFP fluorescence (kMESF) was 34.2 kMESF (inactive).

Regarding `CC(=O)Nc1ncnc2c1c(-c1ccc(Cl)cc1)nn2C(C)(C)C`, the GFP fluorescence (kMESF) was 30.3 kMESF (inactive).

As to `O=C1Nc2ccc(Br)cc2/C1=C/C(=O)c1ccc2c(c1)OCO2`, the GFP fluorescence (kMESF) is 46.7 kMESF (inactive).

For the compound `O=C1c2cccc3c([N+](=O)[O-])ccc(c23)C(=O)N1O`, the GFP fluorescence (kMESF) was 40.9 kMESF (inactive).

With `CCc1ccc(C(=O)/C=C/c2ccc([N+](=O)[O-])o2)cc1`, the GFP fluorescence (kMESF) is 49.5 kMESF (inactive).

For the compound `Oc1ccc2ccccc2c1N=Nc1nccs1`, the GFP fluorescence (kMESF) is 43.4 kMESF (inactive).

In the case of `O=C(Nc1nc(-c2ccccn2)cs1)C1COc2ccccc2O1` (configuration not stated), the GFP fluorescence (kMESF) is 26.3 kMESF (inactive).

As to `O=C(Nc1ccc(N2CCOCC2)cc1)C1CCN(S(=O)(=O)c2ccc3c(c2)OCCO3)CC1`, the GFP fluorescence (kMESF) is 34 kMESF (inactive).

For `O=C1N(c2ccccc2C(F)(F)F)O[C@]1(c1ccccc1)C1CCCC1`, the GFP fluorescence (kMESF) was 32.8 kMESF (inactive).

As for `COc1ccc(-c2cc3cc(C(=O)O)ccn3c2C(=O)c2ccccc2)cc1`, the GFP fluorescence (kMESF) was 43.2 kMESF (inactive).

On to `CCc1cccc2sc(N3CCN(C(=O)c4ccc([N+](=O)[O-])o4)CC3)nc12`, for which the GFP fluorescence (kMESF) is 12.4 kMESF (inactive).

As to `Cc1ccc2c(nc3s/c(=C\c4ccc(-c5ccccc5C(=O)O)o4)c(=O)n32)c1C`, the GFP fluorescence (kMESF) was 49.9 kMESF (inactive).

On to `O=C1C(Cl)=C(Nc2ccccc2O)C(=O)N1CCc1ccccc1`, for which the GFP fluorescence (kMESF) was 39.3 kMESF (inactive).

Regarding `CN(C)/C=C/C(=O)c1ccc(-c2ccc(Cl)cc2Cl)o1`, the GFP fluorescence (kMESF) is 27.8 kMESF (inactive).

Regarding `O=C1C=CC(=O)N1N(c1ccccc1)c1ccccc1`, the GFP fluorescence (kMESF) is 37 kMESF (inactive).

On to `O=C(NOC(=O)c1ccccc1)c1ccccc1`, for which the GFP fluorescence (kMESF) is 25.9 kMESF (inactive).

On to `COc1ccc(N2C(=O)CC(Sc3ncn[nH]3)C2=O)c(OC)c1` (configuration not stated), for which the GFP fluorescence (kMESF) is 36.2 kMESF (inactive).

For `CCCc1cc(N2CCN(c3ccccn3)CC2)n2nc(C)c(-c3ccccc3)c2n1`, the GFP fluorescence (kMESF) is 38.8 kMESF (inactive).

On to `CCCOc1ccc(C(=O)NNC(=S)NC(=O)c2ccccc2)cc1`, for which the GFP fluorescence (kMESF) is 45.1 kMESF (inactive).

With `CCOC(=O)CS(=O)(=O)c1nc(-c2ccc(F)cc2)cc(C(F)(F)F)n1`, the GFP fluorescence (kMESF) was 50.7 kMESF (inactive).

With `COc1ccc(/C=C2\C(=O)ON=C2c2ccccc2)cc1`, the GFP fluorescence (kMESF) was 28 kMESF (inactive).

Regarding `Cc1ccc(S(=O)(=O)N2CC(C(=O)O)=CC[C@H]2c2ccc(Cl)cc2)cc1`, the GFP fluorescence (kMESF) is 39.2 kMESF (inactive).

For `Cc1ccc(C2=NOC(=O)/C2=C\c2ccc(C)o2)cc1`, the GFP fluorescence (kMESF) is 32.4 kMESF (inactive).

For the compound `COc1ccccc1OCCCc1c(C)n[nH]c1C`, the GFP fluorescence (kMESF) was 31.1 kMESF (inactive).

For the compound `CN(C)c1ccc(/C=C/c2cc[n+](C)cc2)cc1`, the GFP fluorescence (kMESF) was 30 kMESF (inactive).

Take `COc1ccc2c(c1)c1nnc(SC)nc1n2C`: the GFP fluorescence (kMESF) is 17.9 kMESF (inactive).

Turning to `N=C1S/C(=C\c2ccco2)C(=O)N1c1nccs1`, the GFP fluorescence (kMESF) was 40.4 kMESF (inactive).

With `Cn1ncc(S(=O)(=O)Cc2ccccc2)c(Cl)c1=O`, the GFP fluorescence (kMESF) is 43.9 kMESF (inactive).

Consider `CNC(CC(=O)c1ccc([N+](=O)[O-])cc1)C(Cl)(Cl)Cl` (configuration not stated), for which the GFP fluorescence (kMESF) is 25.2 kMESF (inactive).

For the compound `COc1cc(/C=C2\C(=O)N(CCC#N)N=C2C)c(Br)cc1OC(C)C`, the GFP fluorescence (kMESF) was 43.5 kMESF (inactive).

In the case of `O=C1N(c2ccccc2C(F)(F)F)O[C@@]1(c1ccccc1)C1CCCC1`, the GFP fluorescence (kMESF) was 38.4 kMESF (inactive).

`N/C(Cc1ccc(Cl)cc1Cl)=N\OC(=O)c1cccs1`: the GFP fluorescence (kMESF) is 27.9 kMESF (inactive).

Regarding `Cc1cc(C(=O)COC(=O)c2ccc[nH]c2=O)c(C)n1-c1ccccc1F`, the GFP fluorescence (kMESF) is 24.1 kMESF (inactive).

For `CCOc1ccc(C(Nc2cccnc2)c2cc(Cl)c3cccnc3c2O)cc1` (configuration not stated), the GFP fluorescence (kMESF) is 36.3 kMESF (inactive).

On to `O=C1C(Cl)=C(N2CCN(Cc3ccccc3)CC2)C(=O)N1c1ccccc1`, for which the GFP fluorescence (kMESF) was 43.8 kMESF (inactive).

Consider `O=C(Nc1ccc(O)cc1)C1CCCN1S(=O)(=O)c1ccc(F)cc1` (configuration not stated), for which the GFP fluorescence (kMESF) was 42.4 kMESF (inactive).

With `O=C1C=CC(=O)N1c1ccc(Sc2ccc([N+](=O)[O-])cc2)cc1`, the GFP fluorescence (kMESF) is 38.7 kMESF (inactive).

As to `COc1cc(CNC(=O)CCCCCCC(C)C)ccc1O`, the GFP fluorescence (kMESF) was 46.8 kMESF (inactive).

For `CC(C)(C)C(=O)NC(=S)NNC(=O)c1ccc(-c2ccccc2)cc1`, the GFP fluorescence (kMESF) was 44.1 kMESF (inactive).

For the compound `CC1=C/C(=N\OS(=O)(=O)c2ccccc2)C(C)=CC1=O`, the GFP fluorescence (kMESF) was 34.7 kMESF (inactive).
